Remaining activity data for 14 compounds are collected here from PMC10890502, “Prevention of Protease-Induced Degradation of Desmoplakin via Small Molecule Binding” (Journal of Personalized Medicine, 2024).

Substitutions are numbered along the chain they refer to. Counter-ions that a name gives are not always drawn. Like-named read-outs stand apart in the source and are kept apart here.

What all share (experiment): biochemical
In test [1] the target is T1, sDSP (DSP178–627) (Homo sapiens, UniProt P15924, S442F).
T1 construct: gene DSP; N-terminal spectrin repeat/SH3 fragment, residues 178-627; pGEX-1 GST fusion cut with thrombin, E. coli BL21(DE3); fluorescein-5-maleimide label on exposed cysteines (C405, C524)
T1 sequence (P15924 178-627 S442F): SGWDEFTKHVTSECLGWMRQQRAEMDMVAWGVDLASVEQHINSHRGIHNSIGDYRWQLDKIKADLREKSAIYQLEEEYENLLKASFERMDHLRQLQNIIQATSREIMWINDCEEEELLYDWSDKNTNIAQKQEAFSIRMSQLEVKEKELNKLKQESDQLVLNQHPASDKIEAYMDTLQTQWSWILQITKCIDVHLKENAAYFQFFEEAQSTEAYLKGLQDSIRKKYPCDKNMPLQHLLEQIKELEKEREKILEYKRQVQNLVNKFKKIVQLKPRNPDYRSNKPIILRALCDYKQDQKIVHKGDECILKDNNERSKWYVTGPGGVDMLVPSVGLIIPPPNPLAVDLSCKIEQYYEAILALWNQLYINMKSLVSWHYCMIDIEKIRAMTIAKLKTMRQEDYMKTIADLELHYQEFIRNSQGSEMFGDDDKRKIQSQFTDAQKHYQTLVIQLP
More on the design: FITC-sDSP S442F degradation by trypsin (1:50), fluorescence polarization after 60 min, per cent of protease-only control. The settings on record: degradation rate of DSP S442F by trypsin; read-out: % of control remaining. The method, then: Fluorescence Polarization (FP) assays were conducted in […] format using a BioTek Synergy H4 plate reader with polarization capacity (Agilent; Savage, MD, USA). All samples were run at 25 °C using PBS pH 7.4, 1 mM DTT, 10 mM CaCl2, 5% DMSO, and […] FITC- DSP178–627, with 500 μM of each drug. Trypsin, chymotrypsin, or calpain at either 1:50, 1:50, or 1:20 concentration was added directly before data collection with an average void time of 2 min. Control experiments in each plate were conducted in triplicate and consisted of DSP178–627 + DMSO + protease as a positive control and DSP178–627 + DMSO + [compound left out] + protease as a negative control. Only plates that had functional positive and negative controls were used in data analysis. Samples were excited at 485 nm, and polarization was monitored at 528 nm. Data were collected at 5 min increments for 1–3 h. A mutation that partially occludes the DSP calpain cleavage site rescues DSP protein levels. We next assessed whether protease-dependent cleavage can also be blocked by small molecules. We screened 2496 FDA-approved drugs for their ability to prevent trypsin-dependent cleavage of sDSP S442F in our FP assay (Figure 3A). […] No change in fluorescence polarization after an hour is indicative of 0% protein degradation rate, as occurs in the [compound left out] positive control. […] (A) sDSP S442F degradation in the presence of trypsin plus 2496 compounds from the Cayman chemical “FDA library”. A degradation rate of 100% indicates the same desmoplakin degradation rate with and without the addition of 500 μM drug while a 0% rate indicates no degradation, as judged by fluorescent polarization values after 1 h. A trypsin-only control and a trypsin + [compound left out] control is indicated. Protection (red lines) was arbitrarily set between 33% and −10%. […] (B) Example of how the data in A was generated.

Test [2] deals with T1, sDSP (DSP178–627). More on the design: FITC-sDSP degradation by calpain (1:20), fluorescence polarization after 60 min, per cent of calpain-only control. The settings on record: degradation rate of DSP S442F by calpain; read-out: % of control remaining. The method, then: (§1) Fluorescence Polarization (FP) assays were conducted in […] format using a BioTek Synergy H4 plate reader with polarization capacity (Agilent; Savage, MD, USA). All samples were run at 25 °C using PBS pH 7.4, 1 mM DTT, 10 mM CaCl2, 5% DMSO, and […] FITC- DSP178–627, with 500 μM of each drug. Trypsin, chymotrypsin, or calpain at either 1:50, 1:50, or 1:20 concentration was added directly before data collection with an average void time of 2 min. Control experiments in each plate were conducted in triplicate and consisted of DSP178–627 + DMSO + protease as a positive control and DSP178–627 + DMSO + [compound left out] + protease as a negative control. Only plates that had functional positive and negative controls were used in data analysis. Samples were excited at 485 nm, and polarization was monitored at 528 nm. Data were collected at 5 min increments for 1–3 h. […] Therefore, we next tested whether these 62 compounds also prevent wildtype and variant DSP degradation in the presence of calpain. […] (A) Normalized fluorescent polarization of WT and sDSP variants in the presence of a 1:20 ratio of calpain plus 500 μM drug, as compared to calpain alone (black) (B) Identity and chemical structure of the six best-performing compounds.

The target of test [3] is T2, sDSP (DSP178–627) (Homo sapiens, UniProt P15924).
T2 construct: gene DSP; N-terminal spectrin repeat/SH3 fragment, residues 178-627; pGEX-1 GST fusion cut with thrombin, E. coli BL21(DE3); fluorescein-5-maleimide label on exposed cysteines (C405, C524)
T2 sequence (P15924 178-627): T1 sequence (P15924 178-627 S442F) with F265S
More on the design: FITC-sDSP degradation by calpain (1:20), fluorescence polarization after 60 min, per cent of calpain-only control. The conditions noted are these: degradation rate of DSP WT by calpain; read-out: % of control remaining. The method, then: as §1

Test [4] has as its target T3, sDSP (DSP178–627) (Homo sapiens, UniProt P15924, R451G).
T3 construct: gene DSP; N-terminal spectrin repeat/SH3 fragment, residues 178-627; pGEX-1 GST fusion cut with thrombin, E. coli BL21(DE3); fluorescein-5-maleimide label on exposed cysteines (C405, C524)
T3 sequence (P15924 178-627 R451G): T1 sequence (P15924 178-627 S442F) with F265S, R274G
More on the design: FITC-sDSP degradation by calpain (1:20), fluorescence polarization after 60 min, per cent of calpain-only control. The settings on record: degradation rate of DSP R451G by calpain; read-out: % of control remaining. The method, then:
as §1

Test [5] has as its target T4, sDSP S507F (Homo sapiens, UniProt P15924, S507F).
T4 construct: gene DSP; N-terminal fragment, residues 178-627
More on the design: FITC-sDSP degradation by calpain (1:20), fluorescence polarization after 60 min, per cent of calpain-only control. The conditions noted are these: degradation rate of DSP S507F by calpain; read-out: % of control remaining. The method, then: as §1

T4 sequence (P15924 whole entry S507F, the tested form may be a part): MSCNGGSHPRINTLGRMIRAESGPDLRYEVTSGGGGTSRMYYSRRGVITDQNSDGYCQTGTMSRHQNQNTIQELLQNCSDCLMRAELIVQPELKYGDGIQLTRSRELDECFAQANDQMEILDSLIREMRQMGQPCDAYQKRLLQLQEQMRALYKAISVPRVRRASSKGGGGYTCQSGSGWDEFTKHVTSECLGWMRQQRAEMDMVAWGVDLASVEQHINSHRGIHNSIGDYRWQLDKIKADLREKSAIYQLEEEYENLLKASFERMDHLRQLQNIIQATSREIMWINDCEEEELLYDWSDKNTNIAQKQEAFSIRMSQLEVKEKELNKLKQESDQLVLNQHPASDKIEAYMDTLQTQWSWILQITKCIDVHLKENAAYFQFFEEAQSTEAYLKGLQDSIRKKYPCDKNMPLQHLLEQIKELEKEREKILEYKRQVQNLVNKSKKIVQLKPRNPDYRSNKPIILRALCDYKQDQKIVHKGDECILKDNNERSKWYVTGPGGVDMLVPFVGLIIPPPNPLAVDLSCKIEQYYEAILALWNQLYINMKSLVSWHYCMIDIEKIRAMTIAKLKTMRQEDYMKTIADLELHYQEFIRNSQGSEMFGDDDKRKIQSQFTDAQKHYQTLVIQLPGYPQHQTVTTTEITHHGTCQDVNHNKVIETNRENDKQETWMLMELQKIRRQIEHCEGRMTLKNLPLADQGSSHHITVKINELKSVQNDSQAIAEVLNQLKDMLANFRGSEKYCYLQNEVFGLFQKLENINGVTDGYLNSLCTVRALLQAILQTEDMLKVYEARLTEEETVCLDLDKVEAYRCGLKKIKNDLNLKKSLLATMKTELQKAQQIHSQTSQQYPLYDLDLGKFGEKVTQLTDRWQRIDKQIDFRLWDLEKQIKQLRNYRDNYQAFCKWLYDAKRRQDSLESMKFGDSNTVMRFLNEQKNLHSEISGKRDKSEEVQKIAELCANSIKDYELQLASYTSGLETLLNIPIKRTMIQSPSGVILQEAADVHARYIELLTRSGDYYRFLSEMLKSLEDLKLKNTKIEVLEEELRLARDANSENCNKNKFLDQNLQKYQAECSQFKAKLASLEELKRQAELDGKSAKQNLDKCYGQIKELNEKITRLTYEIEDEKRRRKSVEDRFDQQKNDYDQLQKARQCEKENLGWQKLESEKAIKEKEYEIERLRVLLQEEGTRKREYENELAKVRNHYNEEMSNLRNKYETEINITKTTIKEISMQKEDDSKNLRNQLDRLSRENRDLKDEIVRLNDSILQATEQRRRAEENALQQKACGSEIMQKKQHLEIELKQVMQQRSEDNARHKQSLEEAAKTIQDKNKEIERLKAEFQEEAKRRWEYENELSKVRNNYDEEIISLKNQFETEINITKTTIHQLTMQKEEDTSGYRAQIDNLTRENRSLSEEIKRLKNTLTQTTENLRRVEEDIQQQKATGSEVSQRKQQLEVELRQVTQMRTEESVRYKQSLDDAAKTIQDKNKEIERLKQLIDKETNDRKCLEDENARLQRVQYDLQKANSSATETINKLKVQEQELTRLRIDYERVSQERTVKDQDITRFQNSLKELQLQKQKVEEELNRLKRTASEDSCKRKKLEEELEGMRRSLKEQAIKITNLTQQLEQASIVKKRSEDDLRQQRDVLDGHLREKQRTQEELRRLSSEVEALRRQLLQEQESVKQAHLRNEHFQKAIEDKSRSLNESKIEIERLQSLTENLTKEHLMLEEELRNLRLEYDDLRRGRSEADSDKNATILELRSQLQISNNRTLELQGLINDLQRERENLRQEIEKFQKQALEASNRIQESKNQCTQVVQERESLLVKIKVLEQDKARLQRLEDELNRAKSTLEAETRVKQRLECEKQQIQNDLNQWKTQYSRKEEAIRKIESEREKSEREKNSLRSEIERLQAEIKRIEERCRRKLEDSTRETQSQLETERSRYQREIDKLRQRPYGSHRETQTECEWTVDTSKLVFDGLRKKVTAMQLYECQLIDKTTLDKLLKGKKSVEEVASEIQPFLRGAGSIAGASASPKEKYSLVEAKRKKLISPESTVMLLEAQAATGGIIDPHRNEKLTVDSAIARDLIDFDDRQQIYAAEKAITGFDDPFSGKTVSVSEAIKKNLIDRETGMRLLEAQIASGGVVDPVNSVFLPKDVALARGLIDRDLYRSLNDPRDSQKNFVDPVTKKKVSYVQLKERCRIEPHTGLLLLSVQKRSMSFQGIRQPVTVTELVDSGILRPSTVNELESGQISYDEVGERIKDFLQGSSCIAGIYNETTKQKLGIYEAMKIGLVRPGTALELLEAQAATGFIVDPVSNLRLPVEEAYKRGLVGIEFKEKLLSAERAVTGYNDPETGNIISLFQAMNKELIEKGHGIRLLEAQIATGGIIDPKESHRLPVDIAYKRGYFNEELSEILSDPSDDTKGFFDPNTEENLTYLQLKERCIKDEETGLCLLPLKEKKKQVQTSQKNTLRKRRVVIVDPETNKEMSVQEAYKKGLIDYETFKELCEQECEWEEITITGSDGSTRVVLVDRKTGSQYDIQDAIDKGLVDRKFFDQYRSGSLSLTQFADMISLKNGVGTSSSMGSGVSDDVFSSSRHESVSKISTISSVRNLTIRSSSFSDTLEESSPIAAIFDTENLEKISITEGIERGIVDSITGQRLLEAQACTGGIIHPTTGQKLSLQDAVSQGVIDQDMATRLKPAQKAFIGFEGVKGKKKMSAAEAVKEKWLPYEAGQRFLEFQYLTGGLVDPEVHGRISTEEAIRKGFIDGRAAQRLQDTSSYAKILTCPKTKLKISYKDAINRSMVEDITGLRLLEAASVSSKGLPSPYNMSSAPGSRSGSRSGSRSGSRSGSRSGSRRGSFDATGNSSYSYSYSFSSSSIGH

Regarding `C=C(c1ccc(C(=O)O)cc1)c1cc2c(cc1C)C(C)(C)CCC2(C)C` [Bexarotene], the remaining activity at 500 µM in test [1] amounted to 26%; in test [2] it was 84%; in test [3], 81%; in test [4], 39%; in test [5], 4%.

For the compound `NC1(Cc2ccc(Cl)cc2)CCN(c2ncnc3[nH]ccc23)CC1` [CCT128930], the remaining activity at 500 µM in test [1] is 20%; in test [2], 86%; in test [3], 54%; in test [4], 32%; in test [5] it was 20%.

In the case of `COc1ccc(-c2cc(=O)c3c(O)cc(O)cc3o2)cc1O` [Diosmetin], the remaining activity at 500 µM in test [1] turned out to be 18%; in test [2], 73%; in test [3] it was 84%; in test [4], 30%; in test [5] it was 0%.

As to `CC/C=C\C/C=C\C/C=C\C/C=C\C/C=C\C/C=C\CCC(=O)O` [Docosahexaenoic Acid], the remaining activity at 500 µM in test [1] was 32%; in test [2] it was -19%; in test [3], -12%; in test [4], 118%; in test [5], 104%.

As for `CCCCc1oc2ccc(NS(C)(=O)=O)cc2c1C(=O)c1ccc(OCCCN(CCCC)CCCC)cc1` [Dronedarone HCl], the remaining activity at 500 µM was 23% in test [1]; 0% in test [2]; 143% in test [3]; 20% in test [4]; 25% in test [5].

As to `CCCCCCCCc1ccc(CCC(N)(CO)CO)cc1` [Fingolimod], the remaining activity at 500 µM in test [1] is -1%; in test [2] it was 70%; in test [3], 35%; in test [4] it was -13%; in test [5] it was 32%.

With `CNC(=O)c1c(F)cccc1Nc1nc(Nc2cc3c(cc2OC)CCN3C(=O)CN(C)C)nc2[nH]ccc12` [GSK1838705A], the remaining activity at 500 µM in test [1] came to 32%; in test [2], 23%; in test [3] it was 35%; in test [4], 34%; in test [5], 24%.

`Cc1ccc(NC(=O)c2ccc(CN3CCN(C)CC3)cc2)cc1Nc1nccc(-c2cccnc2)n1` [Imatinib]: the remaining activity at 500 µM was -3% in test [1]; 62% in test [2]; -6% in test [3]; 4% in test [4]; 108% in test [5].

Consider `Cn1cc(-c2ccc(F)c(C(F)(F)F)c2)nc1C1CCN(c2ncnc3[nH]ncc23)CC1` [LY2584702], for which the remaining activity at 500 µM is 18% in test [1]; -40% in test [2]; 67% in test [3]; 15% in test [4]; 84% in test [5].

As to `O=C(NC1CCN(CCCCC2(C(=O)NCC(F)(F)F)c3ccccc3-c3ccccc32)CC1)c1ccccc1-c1ccc(C(F)(F)F)cc1` [Lomitapide], the remaining activity at 500 µM in test [1] stood at 32%; in test [2] it was 62%; in test [3], 118%; in test [4], 40%; in test [5], 4%.

On to `CN1CCN(C2=Nc3ccccc3Oc3ccc(Cl)cc32)CC1` [Loxipine Succinate], for which the remaining activity at 500 µM in test [1] was 1%; in test [2], 101%; in test [3] it was -8%; in test [4], -41%; in test [5], 107%.

For `CCN(CC)CC#CCOC(=O)C(O)(c1ccccc1)C1CCCCC1` (stereo not shown) [Oxybutynin chloride], the remaining activity at 500 µM in test [1] was 24%; in test [2], -5%; in test [3], 91%; in test [4] it was 31%; in test [5] it was 77%.

For `Fc1ccc([C@@H]2CCNC[C@H]2COc2ccc3c(c2)OCO3)cc1` [Paraxetine], the remaining activity at 500 µM is 20% in test [1]; -3% in test [2]; -8% in test [3]; 26% in test [4]; 133% in test [5].

Regarding `CCCCCCCCCCCCOS(=O)(=O)O` [SDS], the remaining activity at 500 µM is 18% in test [1]; 21% in test [2]; 24% in test [3]; -20% in test [4]; -30% in test [5].
